Results on 15 molecules are retold here after patent publication US20070043070A1, “Weak base salts” (priority 2000, published 2007).

“Also recorded” adds a separate entry of the source. Structures can show the parent of a compound that is named as a salt. Where two headings read alike, the source gives them in different places. Marks after values point to notes of the source that are not given here.

The pKa is the negative logarithm of the acid dissociation constant.

For data set [1] the following is noted: cited from earlier work; for pKa: weak base compounds.
Data set [2] is described as follows: Moisture sorption studies (desiccators at 43% and 81% RH, 25° C., 8 days; PXRD of the solid afterwards). Format: physicochemical. Particulars: for PXRD pattern / solid state form after storage / moisture adsorbed: 8 days; for hygroscopicity in words: 43 and 81% RH; for Hygroscopicity: gain of moisture: hygrostat for 8 days at 43% RH; for moisture adsorbed: 25° C. How it is done: The PXRD patterns of different salts of carbendazim were determined at ambient temperature and atmosphere using a Philips PM 990/100 diffractometer (Philips, The Netherlands). The x-ray generator (PW3373/00 Cu LFF DK119706) has a copper radiation source which generates a voltage of 50 kV, and a current of 40 mA. Counts were measured using a X'Celerator detector which is based on real time multiple strip (RTMS) technology. Samples were packed into zero background silicon sample holders, and precautions were used to avoid introducing preferred orientation of the crystallites. The samples were subjected to a spinning movement having a rotation time of 4 s. The samples were scanned with the diffraction angle, 2θ, increasing from 3° to 63°, with a step size of 0.0167° and a counting time of 15.24 s. The XRD pattern traces of samples (salts subjected to moisture sorption or stability) were compared with regard to peak position and relative intensity, peak shifting, and the presence or lack of peaks in certain angular regions.
The moisture sorption of the various salts was determined by exposing weighed amounts (˜2 to 3 mg) of salts in a 4 ml glass vial, which was placed in sealed desiccators containing saturated salt solutions. Saturated salt solutions that give defined relative humidities (as a function of temperature) have been reported in various handbooks containing physical and chemical data.
The current study was performed at 25° C. with relative humidity values of 43% (saturated solution of potassium carbonate) and 81% (saturated solution of potassium bromide). The samples were stored in desiccators of known relative humidity for 8 days, following which they were re-weighed to calculate the % weight change. The solid phases were then analyzed using PXRD to ascertain the effect of the moisture content.

A short description of data set [3]: Dissolution studies in 0.1N hydrochloric acid. The data set is classed as physicochemical. Particulars: for t60% (time for dissolution of 60% of given amount): pH 1, amount equivalent to 50 mg carbendazim. How it is done: A weighed amount of salt (so as to have 50 mg of carbendazim) was triturated to provide a uniform particle size and was suspended in the dissolution media. The volume of dissolution media was 250 ml, and the stirring rate was maintained at 250 rpm. One ml aliquot samples filtered through a 0.45 μm Millipore filter were withdrawn at 1, 5, 10, 15, 20, 30, 45, and 60 min, respectively. One ml of the dissolution medium was added to the dissolution vessel after each sampling period to maintain constant volume. The samples were then analyzed by HPLC.

Data set [4] in a line: Dissolution studies in Millipore water. Format: physicochemical. Particulars: for completeness of dissolution: 60 min; for t40% (time for dissolution of 40% of given amount): water, amount equivalent to 50 mg carbendazim; for dissolution compared, in words: dissolution profiles.
The nature of data set [5]: Solubility determination of carbendazim salts in water (HPLC). As to conditions: for PHmax: pH below which solubility plateaus or decreases (solution saturated with respect to salt); for pH: saturated solution in water, Table 13. Here is the method: These were mixed by end-to-end rotation. Each sample was then filtered through a 0.45 μm PVDF filter. The filterate was collected in two or more fractions, which were analyzed separately by HPLC to ensure that there were no misleading solubility measurements resulting from adsorption onto the filter. Filter adsorption was assumed to be negligible when the concentration of successive fractions agreed within ±5%. The composition of the residual solid was examined to ensure that at least some of the solid phase that was in equilibrium with the solution was indeed the salt.
The Ksp determinations were generally calculated directly from the observed carbendazim concentration once it was established that the residual solid phase contained excess salt. Since […] results in the neutralization of an equivalent amount of counterion to its free base form, the same procedure could be used to calculate Ksp in systems where free acid precipitation occurred prior to saturation of the system with the given salt.
A Beckman Gold HPLC system equipped with a model no. 168 detector at 280 nm was used for all assays. […] The flow rate was controlled at 0.8 ml/min, with carbendazim's retention time at 3.5 min. The injection volume was 20 μL. The evaluation of the assay was conducted by using carbendazim standard solutions at concentrations ranging from 0.1 μg/ml to 100 μg/ml.

Data set [6] can be described thus: Dehydration kinetics by TGA (Flynn and Wall method). The data set is classed as physicochemical. As to conditions: TGA heating rates 5-15° C. per minute. How it is done: TGA traces were recorded with a TA Instruments TGA Q-50 (TA Instruments, New Castle, Del.). The sample weight was approximately 2-4 mg, and heating rates of 2-15° C./min under nitrogen gas flow of 60 ml/min were used.
The dehydration kinetics of carbendazim hydrochloride dihydrate was studied by subjecting the crystals to TGA heating rates of 5, 7, 10, 12, and 15° C. per minute. The activation energy (Ea) for the dehydration process was calculated from these TGA data according to the method described by Flynn and Wall (J. H. Flynn and L. A. Wall, J. Research Nat. Bur. Standards A, Phys. Chem. A71, 25 (1967); J. Polym. Sci., Pol. Left. 5, 191 (1967); J. Polym. Sci., Pol. Lett. 4, 323 (1966)). This method involves the analysis of weight loss versus temperature at different heating rates (β) to determine the corresponding absolute temperatures at a constant weight loss (C). Graphs of negative logarithm of heating rates (expressed in ° C./s) (−log β) versus 1/T were plotted (FIG. 8) and the activation energy calculated from the slope of the curves. The activation energy for the dehydration of the hydrochloride salt, calculated from the TGA data, was ˜64 kJ/mol.

Turning to `Cc1cc(-c2nc3ccccc3s2)ccc1N` [AMPB], the pKa in data set [1] is listed as 4.

Take carbendazim hemisulfate monohydrate: the “PXRD pattern / solid state form after storage” value (shortened to “PXRD pattern / solid state form”) in data set [2] (43% RH) and in data set [2] (81% RH) was “remained unchanged” each time. Besides, the hygroscopicity in words entry in data set [2] was “minimally hygroscopic”. Moreover, in data set [2], the “Hygroscopicity: gain of moisture” value is given as “Gain 0.38%”. Besides, the “t60% (time for dissolution of 60% of given amount)” value in data set [3] lay in the range of 2 to 3 min. In data set [4] (Millipore water), the completeness of dissolution result was “did not completely dissolve”. The “t40% (time for dissolution of 40% of given amount)” value in data set [4] is on record as “˜3 min”.

Turning to `CN/C(=N\CCSCc1nc[nH]c1C)NC#N` [Cimetadine], the pKa in data set [1] was 6.8.

As for `Clc1ccc(COC(Cn2ccnc2)c2ccc(Cl)cc2Cl)c(Cl)c1` (stereo not shown) [Miconazole], the pKa in data set [1] is 6.7.

Consider `CCN(CC)C(=O)c1cccnc1` [Nikethamide], for which the pKa in data set [1] is reported as 3.5.

Take carbendazim tosylate: in data set [2] (43% RH), the “PXRD pattern / solid state form” value is “remained unchanged”. In addition, in data set [2] (81% RH), the moisture adsorbed result is “approximately 4.3%” and the “PXRD pattern / solid state form” value was “remained unchanged”. Also, the “Hygroscopicity: gain of moisture” value in data set [2] is reported as “Gain 0.27%”. Besides, the “t60% (time for dissolution of 60% of given amount)” value in data set [3] lay within 2 to 3 min. Moreover, the “pH of saturated sol.” value in data set [5] (Table 14) is 1.93. In addition, in data set [5] (calculated after correcting for common ion effect), the Ksp is listed as 4.1 × 10^−4 M^2. The PHmax in data set [5] was 1.82. Besides, the pH in data set [5] (25° C.) turned out to be 1.93. In data set [5] (water, 25° C.), the “S (aqueous solubility)” value is 4.815 mg/mL. For the same molecule, the Sw in data set [5] (water, Table 14) came out at 4.815 mg/mL. For the same molecule, the completeness of dissolution entry in data set [4] (Millipore water) is “did not completely dissolve”. Also, the “t40% (time for dissolution of 40% of given amount)” value in data set [4] was “˜5 min”.

As for `CC(=O)O.CCCCCCCCCCCCCCCCCC1=NCCN1` [Glyodin], the pKa entry in data set [1] was “˜7”.

Regarding carbendazim phosphate, the “PXRD pattern / solid state form” value in data set [2] (43% RH) was “changed”. Also, the “PXRD pattern / solid state form” value in data set [2] (43% RH, listed as phosphate) is “loses intensity in 28 0 2E reflection”. The “PXRD pattern / solid state form” value in data set [2] (43% RH, listed as phosphate salt) was “change form”. In data set [2], the hygroscopicity in words entry is given as “highly hygroscopic” and the “Hygroscopicity: gain of moisture” value was “Gain 0.88%”. Further, in data set [2] (81% RH), the moisture adsorbed was 7.5% and the “PXRD pattern / solid state form” value is “showed changes in their PXRD patterns”. Also, in data set [3], the “t60% (time for dissolution of 60% of given amount)” value lay in the range of 2 to 3 min. Moreover, in data set [4] (Millipore water), the completeness of dissolution result is “did not completely dissolve” and the “dissolution compared, in words” value is given as “better dissolution than the 1:1 physical mixture”. Also, in data set [4], the “t40% (time for dissolution of 40% of given amount)” value is reported as “˜5 min”.

In the case of `O=S(=O)(O)c1ccccc1` [Benzenesulfonic acid], in data set [1] (acids used as counter-ions, Table 1), the Pka1 was 0.7.

Consider `CCCCOC(=O)c1ccc(N)cc1` [Butamben], for which the pKa in data set [1] is recorded as 5.4.

For the molecule carbendazim mesylate, in data set [2] (43% RH), the “PXRD pattern / solid state form” value is reported as “moisture, same”. Also, in data set [2], the hygroscopicity in words entry is recorded as “highly hygroscopic” and the “Hygroscopicity: gain of moisture” value is on record as “Gain 2.04%”. For the same molecule, in data set [2] (81% RH), the moisture adsorbed stood at 10.1% and the “PXRD pattern / solid state form” value is “showed changes in their PXRD patterns”. Further, the “time for dissolving 100% of sample” value in data set [3] (0.1N HCl, pH 1.1) is reported as “instanteously soluble”. Further, in data set [3], the “t60% (time for dissolution of 60% of given amount)” value was found to be 1 min. Moreover, the “pH of saturated sol.” value in data set [5] (Table 14) came out at 0.80. Further, the pH in data set [5] (25° C.) came out at 0.8. In addition, in data set [5] (water, 25° C.), the “S (aqueous solubility)” value was more than 205.662 mg/mL. Also, the “S (aqueous solubility)” value in data set [5] (water, 25° C., listed as mesylate) is more than 200 mg/mL. The Sw in data set [5] (water, Table 14) is given as >205.662* mg/ml. Also, in data set [4] (Millipore water), the “time to complete dissolution” value is not above 30 min and the “dissolution compared, in words” value was “dissolved the fastest; also recorded: best dissolution time”. Also, the “t40% (time for dissolution of 40% of given amount)” value in data set [4] was less than 1 min.

Take `Cc1cc(NC(=O)NC(=O)c2ccccc2N(C)C)ccc1Oc1ncc(Br)cn1` [BPU NSC 639829]: the pKa entry in data set [1] is recorded as “˜5”.

Turning to `COC(=O)Nc1nc2ccccc2[nH]1` [Hydrochloride, carbendazim hydrochloride], the “PXRD pattern / solid state form” value in data set [2] (43% RH) is given as “remained unchanged”. The hygroscopicity in words result in data set [2] is recorded as “minimally hygroscopic”. In addition, in data set [2] (81% RH), the “PXRD pattern / solid state form” value is recorded as “remained unchanged”. In addition, the “Hygroscopicity: gain of moisture” value in data set [2] (hydrochloride) was “Gain 0.13%”. Further, in data set [3] (hydrochloride), the “t60% (time for dissolution of 60% of given amount)” value lay within 2 to 3 min. Besides, in data set [5], the “S (aqueous solubility)” value amounted to 6.080 mg/mL, the Sw amounted to 6.080 mg/mL and the “pH of saturated sol.” value was 1.68. Further, the pH in data set [5] (25° C.) was determined as 1.68. Further, in data set [6], the “activation energy for the dehydration” value was approximately 64 kJ/mol. Moreover, the completeness of dissolution entry in data set [4] (Millipore water) is given as “did not completely dissolve”. The “t40% (time for dissolution of 40% of given amount)” value in data set [4] was “˜5 min”.

Regarding carbendazim besylate, in data set [2] (43% RH), the “PXRD pattern / solid state form” value is on record as “remained unchanged”. For the same molecule, in data set [2] (81% RH), the moisture adsorbed entry is “approximately 4.3%” and the “PXRD pattern / solid state form” value is recorded as “remained unchanged”. Also, the “Hygroscopicity: gain of moisture” value in data set [2] is “Gain 0.18%”. Further, in data set [3], the “t60% (time for dissolution of 60% of given amount)” value fell in the range of 2 to 3 min. Also, the “pH of saturated sol.” value in data set [5] (Table 14) was determined as 1.76. In addition, the PHmax in data set [5] was 1.65. Moreover, the pH in data set [5] (25° C.) came to 1.76. In addition, the “S (aqueous solubility)” value in data set [5] (water, 25° C.) stood at 6.992 mg/mL. Also, in data set [5] (water, Table 14), the Sw was determined as 6.992 mg/mL. For the same molecule, the completeness of dissolution result in data set [4] (Millipore water) is given as “did not completely dissolve”. In addition, the “t40% (time for dissolution of 40% of given amount)” value in data set [4] is given as “˜5 min”.

In the case of `COC(=O)Nc1nc2ccccc2[nH]1` [Free Base, carbendazim, reference compound], the “Hygroscopicity: gain of moisture” value in data set [2] is reported as “Gain 0.36%”. For the same molecule, the completeness of dissolution result in data set [3] (0.1N HCl) was “completely soluble”. The “t60% (time for dissolution of 60% of given amount)” value in data set [3] stood at 5 min. In data set [5], the “S (aqueous solubility)” value came out at 0.006 mg/mL, the Sw was 0.006 mg/mL and the “pH of saturated sol.” value is on record as 5.90. The “dissolved fraction of the initial dose” value in data set [4] (Millipore water, after 60 min) was “less than 1%”.
